Source: patent US20250339409A1, “USES OF PAN BET INHIBITORS” (VYNE THERAPEUTICS INC., priority 2021, published 2025)

Test system: imiquimod-induced psoriasis
Test: Imiquimod-induced psoriasis (Th17 inflammation) model in mice, topical treatment once daily D7-D13: PASI, modified PASI, body weight, use of enrichment, TEWL
Type: in vivo
Set-up: key to Mean score use enrichment: 0 = no use of dental rolls to 4 = use of all 4; key to PASI Mean score values: sum of erythema, induration, peeling scores, each 0-3 (0 = none)
Procedure: Thirty-six (36) female Balb/c mice are weighed and randomly divided into 9 groups (n=4) according to body weight on D1. For mice of native group 1 and tolerance groups 8 and 9, no induction of psoriasis is performed between D1 and D13. Psoriasis is induced in groups 2 to 7 by once daily topical application for 13 days (from day 1 to day 13) of 65 mg of Aldara™ cream (5.0% imiquimod) onto the shaved and epilated back of mice. Before the first treatment, a second randomization of mice of the 6 imiquimod-induced psoriasis groups is performed according to the severity of psoriasis (PASI), and also the body weight of mice. Starting on day 7 and until day 13, 100 mg of test formulations […] and 65 mg of vehicle (groups 1 and […]) are topically administered once daily for 7 consecutive days onto the shaved back skin of mice. Several measurements are taken during treatment period from day 7 to day 14: psoriasis index (PASI), body weight, use of enrichment and mortality. At the end of treatment period, TEWL is assessed, and blood and skin samples are collected. Histological analysis of skin samples is used for microscopic scoring of psoriasis and the determination of the thickness of parakeratosis and epidermis and blood analysis is used for assessing the level of proinflammatory biomarkers (cytokines assays). The effect of treatment of psoriasis induced mice with BETi formulations at the four dose levels are compared with Dermoval® cream containing 0.05% clobetasol propionate (reference) and vehicle (positive control) and also with healthy mice treated with vehicle (negative control).
PASI scoring takes into account the following 3 parameters: the presence of erythema on the skin, induration of the skin (thickening) and peeling of the skin at the area of the induction of psoriasis.
The presence of erythema on the skin at the area of induction of psoriasis with the following scoring grid: • 0=no or no more erythema on the skin, • 1=weak erythema on the skin, • 2=moderate erythema on the skin, • 3=important erythema on the skin.
The presence of induration of the skin at the area of induction of psoriasis with the following scoring grid: • 0=no or no more induration of the skin, • 1=weak induration of the skin, • 2=moderate induration of the skin, • 3=important induration of the skin.
The presence of peeling of the skin at the area of induction of psoriasis with the following scoring grid: • 0=no or no more dryness/peeling of the skin, • 1=weak dryness/peeling of the skin, • 2=moderate dryness/peeling of the skin, • 3=important dryness/peeling of the skin.
The sum of the mean scores of these 3 parameters result in the mean PASI score.
One of the issues with a steroid is that it causes skin thinning and continues to have an effect on no longer inflamed skin and the model set up and measurements above are not designed to reflect this negative effect. Therefore, a modified PASI (mPASI) is calculated in the same the manner as mean PASI score but excludes the scoring for induration (thickening of the skin).
Mice are weighed three times during the week of D1 to D7, and then daily during the week of D7 to D13, as well as on the day D14 when they are sacrificed. It should be noted that a characteristic body weight loss of mice is observed after the start of the induction of psoriasis, mainly during the first days following it. The body weight loss can reach between 10 to 15%.
For the duration of the experiment, dental rolls are used as enrichment and placed in each cage and replaced twice. Between D1 and D7, the number of dental rolls used by animals are determined twice in the morning, and are determined daily during D7 to D14, at the time of PASI or the tolerance assessment. The use of dental rolls is scored from 0=no use of dental rolls to 4=use of the 4 dental rolls. In the case where only half of a dental roll is used, a score of 0.5 is assigned. […]

Cn1cc(-c2cccc(O)c2Oc2ccccc2)c2cc[nH]c2c1=O [BETi1]
Change in Modified PASI Mean score values (Table 1C, imiquimod-induced mice, treatment day 0, listed as BETi1 0.001%): 4.25
Change in Modified PASI Mean score values (Table 1C, imiquimod-induced mice, treatment day 0, listed as BETi1 0.01%): 4.375
Change in Modified PASI Mean score values (Table 1C, imiquimod-induced mice, treatment day 0, listed as BETi1 0.1%): 4.375
Change in Modified PASI Mean score values (Table 1C, imiquimod-induced mice, treatment day 1, listed as BETi1 0.001%): 5.375
Change in Modified PASI Mean score values (Table 1C, imiquimod-induced mice, treatment day 1, listed as BETi1 0.01%): 4
Change in Modified PASI Mean score values (Table 1C, imiquimod-induced mice, treatment day 1, listed as BETi1 0.1%): 4.375
Change in Modified PASI Mean score values (Table 1C, imiquimod-induced mice, treatment day 2, listed as BETi1 0.001%): 4.75
Change in Modified PASI Mean score values (Table 1C, imiquimod-induced mice, treatment day 2, listed as BETi1 0.01%): 2.875
Change in Modified PASI Mean score values (Table 1C, imiquimod-induced mice, treatment day 2, listed as BETi1 0.1%): 3.125
Change in Modified PASI Mean score values (Table 1C, imiquimod-induced mice, treatment day 3, listed as BETi1 0.001%): 4.25
Change in Modified PASI Mean score values (Table 1C, imiquimod-induced mice, treatment day 3, listed as BETi1 0.01%): 2.5
Change in Modified PASI Mean score values (Table 1C, imiquimod-induced mice, treatment day 3, listed as BETi1 0.1%): 2
Change in Modified PASI Mean score values (Table 1C, imiquimod-induced mice, treatment day 4, listed as BETi1 0.001%): 4
Change in Modified PASI Mean score values (Table 1C, imiquimod-induced mice, treatment day 4, listed as BETi1 0.01%): 2.125
Change in Modified PASI Mean score values (Table 1C, imiquimod-induced mice, treatment day 4, listed as BETi1 0.1%): 0.75
Change in Modified PASI Mean score values (Table 1C, imiquimod-induced mice, treatment day 5, listed as BETi1 0.001%): 3.375
Change in Modified PASI Mean score values (Table 1C, imiquimod-induced mice, treatment day 5, listed as BETi1 0.01%): 1
Change in Modified PASI Mean score values (Table 1C, imiquimod-induced mice, treatment day 5, listed as BETi1 0.1%): 0.375
Change in Modified PASI Mean score values (Table 1C, imiquimod-induced mice, treatment day 6, listed as BETi1 0.001%): 3
Change in Modified PASI Mean score values (Table 1C, imiquimod-induced mice, treatment day 6, listed as BETi1 0.01%): 1.25
Change in Modified PASI Mean score values (Table 1C, imiquimod-induced mice, treatment day 6, listed as BETi1 0.1%): 0.25
Change in Modified PASI Mean score values (Table 1C, imiquimod-induced mice, treatment day 7, listed as BETi1 0.001%): 3
Change in Modified PASI Mean score values (Table 1C, imiquimod-induced mice, treatment day 7, listed as BETi1 0.01%): 1
Change in Modified PASI Mean score values (Table 1C, imiquimod-induced mice, treatment day 7, listed as BETi1 0.1%): 0.25
Change in Modified PASI Mean score values (Table 1D, relative to day 0 = 100, treatment day 0): 100
Change in Modified PASI Mean score values (Table 1D, relative to day 0 = 100, treatment day 1, listed as BETi1 0.001%): 126.47
Change in Modified PASI Mean score values (Table 1D, relative to day 0 = 100, treatment day 1, listed as BETi1 0.01%): 91.43
Change in Modified PASI Mean score values (Table 1D, relative to day 0 = 100, treatment day 1, listed as BETi1 0.1%): 100
Change in Modified PASI Mean score values (Table 1D, relative to day 0 = 100, treatment day 2, listed as BETi1 0.001%): 111.76
Change in Modified PASI Mean score values (Table 1D, relative to day 0 = 100, treatment day 2, listed as BETi1 0.01%): 65.71
Change in Modified PASI Mean score values (Table 1D, relative to day 0 = 100, treatment day 2, listed as BETi1 0.1%): 71.43
Change in Modified PASI Mean score values (Table 1D, relative to day 0 = 100, treatment day 3, listed as BETi1 0.001%): 100
Change in Modified PASI Mean score values (Table 1D, relative to day 0 = 100, treatment day 3, listed as BETi1 0.01%): 57.14
Change in Modified PASI Mean score values (Table 1D, relative to day 0 = 100, treatment day 3, listed as BETi1 0.1%): 45.72
Change in Modified PASI Mean score values (Table 1D, relative to day 0 = 100, treatment day 4, listed as BETi1 0.001%): 94.12
Change in Modified PASI Mean score values (Table 1D, relative to day 0 = 100, treatment day 4, listed as BETi1 0.01%): 48.57
Change in Modified PASI Mean score values (Table 1D, relative to day 0 = 100, treatment day 4, listed as BETi1 0.1%): 17.142
Change in Modified PASI Mean score values (Table 1D, relative to day 0 = 100, treatment day 5, listed as BETi1 0.001%): 79.41
Change in Modified PASI Mean score values (Table 1D, relative to day 0 = 100, treatment day 5, listed as BETi1 0.01%): 22.86
Change in Modified PASI Mean score values (Table 1D, relative to day 0 = 100, treatment day 5, listed as BETi1 0.1%): 8.57
Change in Modified PASI Mean score values (Table 1D, relative to day 0 = 100, treatment day 6, listed as BETi1 0.001%): 70.59
Change in Modified PASI Mean score values (Table 1D, relative to day 0 = 100, treatment day 6, listed as BETi1 0.01%): 28.57
Change in Modified PASI Mean score values (Table 1D, relative to day 0 = 100, treatment day 6, listed as BETi1 0.1%): 5.71
Change in Modified PASI Mean score values (Table 1D, relative to day 0 = 100, treatment day 7, listed as BETi1 0.001%): 70.59
Change in Modified PASI Mean score values (Table 1D, relative to day 0 = 100, treatment day 7, listed as BETi1 0.01%): 22.86
Change in Modified PASI Mean score values (Table 1D, relative to day 0 = 100, treatment day 7, listed as BETi1 0.1%): 5.71
Mean score use enrichment (imiquimod-induced mice, Before D 1, listed as BETi 0.001%): 4.00
Mean score use enrichment (imiquimod-induced mice, Before D 1, listed as BETi 0.01%): 4.00
Mean score use enrichment (imiquimod-induced mice, Before D 1, listed as BETi 0.1%): 4.00
Mean score use enrichment (imiquimod-induced mice, Before D 1, listed as BETi 1.0%): 3.75
Modified PASI Mean score values (imiquimod-induced mice, D 1): 0.00
PASI Mean score values (imiquimod-induced mice, D 1): 0.00
Mean score use enrichment (imiquimod-induced mice, D 1-D 8, listed as BETi 0.001%): 1.79
Mean score use enrichment (imiquimod-induced mice, D 1-D 8, listed as BETi 0.01%): 1.61
Mean score use enrichment (imiquimod-induced mice, D 1-D 8, listed as BETi 0.1%): 1.54
Mean score use enrichment (imiquimod-induced mice, D 1-D 8, listed as BETi 1.0%): 2.56
Mean body weights (imiquimod-induced mice, D 1, listed as BETi1 1.0%): 18.11
